According to publication PMC8670039, “Flavonoids kaempferol and quercetin are nuclear receptor 4A1 (NR4A1, Nur77) ligands and inhibit rhabdomyosarcoma cell and tumor growth” (Journal of Experimental & Clinical Cancer Research : CR, 2021):

Target: nuclear receptor 4A1 (NR4A1, Nur77) (Homo sapiens, UniProt P22736)
Test: Trp fluorescence quenching direct binding; also bis-ANS competitive displacement (Ki […])

nuclear receptor 4A1 (NR4A1, Nur77), sequence (P22736 351-598 limits assumed): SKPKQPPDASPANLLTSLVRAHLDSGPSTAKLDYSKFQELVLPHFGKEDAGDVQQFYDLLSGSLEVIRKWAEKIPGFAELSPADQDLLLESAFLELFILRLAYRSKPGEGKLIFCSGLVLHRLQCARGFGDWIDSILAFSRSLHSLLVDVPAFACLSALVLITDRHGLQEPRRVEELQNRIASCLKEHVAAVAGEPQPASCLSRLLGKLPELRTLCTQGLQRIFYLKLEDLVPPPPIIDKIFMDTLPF

SMILES: O=c1c(O)c(-c2ccc(O)c(O)c2)oc2cc(O)cc(O)c12 [Q, quercetin]
- Kd: 930 nM
